#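 Interpolation was linear, between the two tested concentrations surrounding the appropriate level; five concentrations were tested over 48 hours in 96-well plates. TGI denotes the concentration required for complete inhibition of growth.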
# Columns and labels:
# Experiment in all cases: inhibition of tumour cell growth, NCI panel, 48 h
# [1] = system: NCI-H522 lung
# [2] = system: DLD-1 colon
# [3] = system: M19-MEL melanoma
# [4] = system: OVCAR-4 ovarian
# [5] = system: EKVX NSCLC
# [6] = system: SR leukemia
# [7] = system: XF 498 CNS
# [8] = system: M14 melanoma
# [9] = system: 786-0 renal
# [10] = system: LOX IMVI melanoma
# [11] = system: DMS 273 small cell lung
# [12] = system: SF-539 CNS
# [13] = system: SK-MEL-5 melanoma
# [14] = system: LXFL 529 NSCLC
# [15] = system: HCC-2998 colon
# [16] = system: HOP-92 NSCLC
# [17] = system: UO-31 renal
# [18] = system: RXF 393 renal
# [19] = system: SW-620 colon
# [20] = system: HOP-18 NSCLC
# [21] = system: MOLT-4 leukemia
# [22] = system: SNB-75 CNS
# [23] = system: COLO 205 colon
# [24] = system: MALME-3M melanoma
# [25] = system: UACC-62 melanoma
# [26] = system: HOP-62 NSCLC
# [27] = system: KM12 colon
# [28] = system: SN12C renal
# [29] = system: HCT-116 colon
# [30] = system: U251 CNS
# [31] = system: RXF-631 renal
# [32] = system: UACC-257 melanoma
# [33] = system: ACHN renal
# [34] = system: OVCAR-5 ovarian
# [35] = system: A549 NSCLC
# [36] = system: SK-MEL-28 melanoma
# [37] = system: IGROV1 ovarian
# [38] = system: NCI-H23 lung
# [39] = system: NCI-H226 lung
# [40] = system: TK-10 renal
# [41] = system: SK-OV-3 ovarian
# [42] = system: OVCAR-8 ovarian
# [43] = system: HT29 colon
# [44] = system: SF-268 CNS
# [45] = system: SNB-19 CNS
# [46] = system: SF-295 CNS
# [47] = system: DMS 114 small cell lung
# [48] = system: NCI-H460 lung
# [49] = system: SK-MEL-2 melanoma
# [50] = system: RPMI-8226 leukemia
# [51] = system: A498 renal
# [52] = system: CCRF-CEM leukemia
# [53] = system: CAKI-1 renal
# [54] = system: HCT-15 colon
# [55] = system: SNB-78 CNS
# [56] = system: OVCAR-3 ovarian
# [57] = system: K-562 leukemia
# [58] = system: KM20L2 colon
# [59] = system: HL-60(TB) leukemia
smiles,measurement,setting,value
O=C(CCc1nnc2s/c(=C\c3ccc4c(c3)OCO4)c(=O)n12)Nc1cc(Cl)ccc1Cl,TGI,[1],> 100 µM
same,TGI,[2],> 100 µM
same,TGI,[3],> 100 µM
same,TGI,[4],> 100 µM
same,TGI,[5],> 100 µM
same,TGI,[6],> 100 µM
same,TGI,[7],> 100 µM
same,TGI,[8],> 100 µM
same,TGI,[9],> 100 µM
same,TGI,[10],> 100 µM
same,TGI,[11],> 100 µM
same,TGI,[12],> 100 µM
same,TGI,[13],> 100 µM
same,TGI,[14],> 100 µM
same,TGI,[15],> 100 µM
same,TGI,[16],> 100 µM
same,TGI,[17],> 100 µM
same,TGI,[18],> 100 µM
same,TGI,[19],> 60.5 µM
same,TGI,[20],> 100 µM
same,TGI,[21],> 100 µM
same,TGI,[22],> 100 µM
same,TGI,[23],> 100 µM
same,TGI,[24],> 100 µM
same,TGI,[25],> 100 µM
same,TGI,[26],> 100 µM
same,TGI,[27],> 100 µM
same,TGI,[28],> 100 µM
same,TGI,[29],> 78.8 µM
same,TGI,[30],> 100 µM
same,TGI,[31],> 100 µM
same,TGI,[32],> 100 µM
same,TGI,[33],> 100 µM
same,TGI,[34],> 100 µM
same,TGI,[35],> 100 µM
same,TGI,[36],> 100 µM
same,TGI,[37],> 100 µM
same,TGI,[38],> 100 µM
same,TGI,[39],> 100 µM
same,TGI,[40],> 100 µM
same,TGI,[41],> 100 µM
same,TGI,[42],> 100 µM
same,TGI,[43],> 100 µM
same,TGI,[44],> 100 µM
same,TGI,[45],> 100 µM
same,TGI,[46],> 100 µM
same,TGI,[47],> 100 µM
same,TGI,[48],> 100 µM
same,TGI,[49],> 100 µM
same,TGI,[50],> 100 µM
same,TGI,[51],> 100 µM
same,TGI,[52],> 100 µM
same,TGI,[53],> 100 µM
same,TGI,[54],> 56.6 µM
same,TGI,[55],> 100 µM
same,TGI,[56],> 100 µM
same,TGI,[57],> 100 µM
same,TGI,[58],> 100 µM
same,TGI,[59],> 100 µM
